PubChem BioAssay (NCI)
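Each compound was tested at five concentrations against cells in 96-well plates for 48 hours. The concentration for 50% growth inhibition is given as GI50. TGI: concentration producing complete growth inhibition.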

Legend:
Test in all cases: NCI anticancer screen, dose series, 48 h
U251 CNS = system: U251 CNS
NCI/ADR-RES ovarian = system: NCI/ADR-RES ovarian
NCI-H23 lung = system: NCI-H23 lung
SK-MEL-28 melanoma = system: SK-MEL-28 melanoma
HCC-2998 colon = system: HCC-2998 colon
HCT-15 colon = system: HCT-15 colon
OVCAR-5 ovarian = system: OVCAR-5 ovarian
SF-539 CNS = system: SF-539 CNS
SN12C renal = system: SN12C renal
MCF7 breast = system: MCF7 breast
OVCAR-4 ovarian = system: OVCAR-4 ovarian
DU-145 prostate = system: DU-145 prostate
BT-549 breast = system: BT-549 breast
CAKI-1 renal = system: CAKI-1 renal
MOLT-4 leukemia = system: MOLT-4 leukemia
HT29 colon = system: HT29 colon
HL-60(TB) leukemia = system: HL-60(TB) leukemia
KM12 colon = system: KM12 colon
COLO 205 colon = system: COLO 205 colon
IGROV1 ovarian = system: IGROV1 ovarian
MALME-3M melanoma = system: MALME-3M melanoma
HOP-92 NSCLC = system: HOP-92 NSCLC
SNB-75 CNS = system: SNB-75 CNS
SNB-19 CNS = system: SNB-19 CNS
NCI-H226 lung = system: NCI-H226 lung
A549 NSCLC = system: A549 NSCLC
SK-MEL-5 melanoma = system: SK-MEL-5 melanoma
K-562 leukemia = system: K-562 leukemia
PC-3 prostate = system: PC-3 prostate
RPMI-8226 leukemia = system: RPMI-8226 leukemia
M14 melanoma = system: M14 melanoma
TK-10 renal = system: TK-10 renal
ACHN renal = system: ACHN renal
SW-620 colon = system: SW-620 colon
LOX IMVI melanoma = system: LOX IMVI melanoma
SF-295 CNS = system: SF-295 CNS
NCI-H522 lung = system: NCI-H522 lung
CCRF-CEM leukemia = system: CCRF-CEM leukemia
786-0 renal = system: 786-0 renal
SF-268 CNS = system: SF-268 CNS
SK-MEL-2 melanoma = system: SK-MEL-2 melanoma
OVCAR-8 ovarian = system: OVCAR-8 ovarian
UACC-257 melanoma = system: UACC-257 melanoma
HCT-116 colon = system: HCT-116 colon
NCI-H460 lung = system: NCI-H460 lung
HOP-62 NSCLC = system: HOP-62 NSCLC
MDA-MB-231 breast = system: MDA-MB-231 breast
MDA-MB-435 = system: MDA-MB-435
SR leukemia = system: SR leukemia
EKVX NSCLC = system: EKVX NSCLC
SK-OV-3 ovarian = system: SK-OV-3 ovarian
OVCAR-3 ovarian = system: OVCAR-3 ovarian
UACC-62 melanoma = system: UACC-62 melanoma
UO-31 renal = system: UO-31 renal
A498 renal = system: A498 renal
RXF 393 renal = system: RXF 393 renal

With Cc1c(CN)c(C)c(CN)c(C)c1CN the TGI (U251 CNS) was > 100000 nM, the TGI (NCI/ADR-RES ovarian) was > 100000 nM and the TGI (NCI-H23 lung) was 94.5 µM. The TGI (SK-MEL-28 melanoma) was > 100000 nM, the TGI (HCC-2998 colon) was > 100000 nM and the TGI (HCT-15 colon) was > 100000 nM. For the same compound, the TGI (OVCAR-5 ovarian) was > 100 µM, the TGI (SF-539 CNS) was > 100 µM and the TGI (SN12C renal) was > 100000 nM. The TGI (MCF7 breast) was > 100000 nM, the TGI (OVCAR-4 ovarian) was > 100 µM and the TGI (DU-145 prostate) was > 100000 nM. For the same compound, the TGI (BT-549 breast) was > 100000 nM, the TGI (CAKI-1 renal) was > 100000 nM and the TGI (MOLT-4 leukemia) was > 100 µM. For the same compound, the TGI (HT29 colon) was > 100 µM, the TGI (HL-60(TB) leukemia) was > 100 µM and the TGI (KM12 colon) was > 100000 nM. For the same compound, the TGI (COLO 205 colon) was > 100 µM, the TGI (IGROV1 ovarian) was > 100000 nM and the TGI (MALME-3M melanoma) was > 100000 nM. The TGI (HOP-92 NSCLC) was > 100 µM, the TGI (SNB-75 CNS) was > 100000 nM and the TGI (SNB-19 CNS) was > 100 µM. The TGI (NCI-H226 lung) was > 100000 nM, the TGI (A549 NSCLC) was > 100 µM and the TGI (SK-MEL-5 melanoma) was > 100000 nM. For the same compound, the TGI (K-562 leukemia) was > 100 µM, the TGI (PC-3 prostate) was > 100 µM and the TGI (RPMI-8226 leukemia) was > 100 µM. The TGI (M14 melanoma) was > 100000 nM, the TGI (TK-10 renal) was > 100000 nM and the TGI (ACHN renal) was > 100000 nM. The TGI (SW-620 colon) was > 100 µM, the TGI (LOX IMVI melanoma) was > 100000 nM and the TGI (SF-295 CNS) was > 100 µM. The TGI (NCI-H522 lung) was > 100000 nM, the TGI (CCRF-CEM leukemia) was > 100 µM and the TGI (786-0 renal) was > 100000 nM. For the same compound, the TGI (SF-268 CNS) was > 100 µM, the TGI (SK-MEL-2 melanoma) was > 100 µM and the TGI (OVCAR-8 ovarian) was > 100 µM. The TGI (UACC-257 melanoma) was > 100000 nM, the TGI (HCT-116 colon) was > 100000 nM and the TGI (NCI-H460 lung) was > 100000 nM. For the same compound, the TGI (HOP-62 NSCLC) was > 100000 nM, the TGI (MDA-MB-231 breast) was > 100 µM and the TGI (MDA-MB-435) was > 100 µM. For the same compound, the TGI (SR leukemia) was > 100 µM and the TGI (EKVX NSCLC) was > 100000 nM.

In the case of O=C1N=C(c2c(-c3[nH]c(=O)c4ccc(Br)cc4c3O)c(O)c3ccccc3c2O)C(=O)c2cc(Br)ccc21, the GI50 (U251 CNS) is reported as 370 nM, the TGI (U251 CNS) is reported as 798 nM and the GI50 (NCI/ADR-RES ovarian) is reported as 363 nM. It also gave a TGI (NCI/ADR-RES ovarian) of 1080 nM, a GI50 (NCI-H23 lung) of 300 nM and a TGI (NCI-H23 lung) of 0.785 µM. For the same compound, the GI50 (SK-MEL-28 melanoma) was 375 nM, the TGI (SK-MEL-28 melanoma) was 926 nM and the GI50 (HCC-2998 colon) was 347 nM. The TGI (HCC-2998 colon) was 832 nM, the GI50 (HCT-15 colon) was 306 nM and the TGI (HCT-15 colon) was 672 nM. The GI50 (OVCAR-5 ovarian) was > 8.37 µM, the TGI (OVCAR-5 ovarian) was > 16.7 µM and the GI50 (SN12C renal) was 359 nM. The TGI (SN12C renal) was 790 nM, the GI50 (SK-OV-3 ovarian) was 388 nM and the TGI (SK-OV-3 ovarian) was 1220 nM. It also gave a GI50 (MCF7 breast) of 335 nM, a TGI (MCF7 breast) of 1210 nM and a GI50 (DU-145 prostate) of 427 nM. It also gave a TGI (DU-145 prostate) of 1110 nM, a GI50 (BT-549 breast) of 422 nM and a TGI (BT-549 breast) of 1350 nM. For the same compound, the GI50 (CAKI-1 renal) was 379 nM, the TGI (CAKI-1 renal) was 1030 nM and the GI50 (OVCAR-3 ovarian) was 388 nM. The TGI (OVCAR-3 ovarian) was 932 nM, the GI50 (MOLT-4 leukemia) was > 3.71 µM and the TGI (MOLT-4 leukemia) was > 16.7 µM. For the same compound, the GI50 (HT29 colon) was > 8.04 µM, the TGI (HT29 colon) was > 16.7 µM and the GI50 (HL-60(TB) leukemia) was > 16.7 µM. For the same compound, the TGI (HL-60(TB) leukemia) was > 16.7 µM, the GI50 (KM12 colon) was 566 nM and the TGI (KM12 colon) was 1970 nM. For the same compound, the GI50 (COLO 205 colon) was > 16.7 µM, the TGI (COLO 205 colon) was > 16.7 µM and the GI50 (IGROV1 ovarian) was 493 nM. It also gave a TGI (IGROV1 ovarian) of 1410 nM, a GI50 (MALME-3M melanoma) of 367 nM and a TGI (MALME-3M melanoma) of 770 nM. For the same compound, the GI50 (HOP-92 NSCLC) was > 16.7 µM, the TGI (HOP-92 NSCLC) was > 16.7 µM and the GI50 (SNB-75 CNS) was 261 nM. For the same compound, the TGI (SNB-75 CNS) was 537 nM, the GI50 (SNB-19 CNS) was 611 nM and the TGI (SNB-19 CNS) was > 16.7 µM. It also gave a GI50 (NCI-H226 lung) of 335 nM, a TGI (NCI-H226 lung) of 937 nM and a GI50 (A549 NSCLC) of 577 nM. For the same compound, the TGI (A549 NSCLC) was > 16.7 µM, the TGI (UACC-62 melanoma) was > 16.7 µM and the GI50 (SK-MEL-5 melanoma) was 479 nM. For the same compound, the TGI (SK-MEL-5 melanoma) was 1470 nM, the GI50 (K-562 leukemia) was 593 nM and the TGI (K-562 leukemia) was > 16.7 µM. For the same compound, the GI50 (RPMI-8226 leukemia) was > 3.43 µM, the TGI (RPMI-8226 leukemia) was > 16.7 µM and the GI50 (M14 melanoma) was 523 nM. For the same compound, the TGI (M14 melanoma) was 1600 nM, the GI50 (TK-10 renal) was 484 nM and the TGI (TK-10 renal) was 1180 nM. The GI50 (ACHN renal) was 333 nM, the TGI (ACHN renal) was 908 nM and the GI50 (LOX IMVI melanoma) was 281 nM. It also gave a TGI (LOX IMVI melanoma) of 554 nM, a GI50 (NCI-H522 lung) of 359 nM and a TGI (NCI-H522 lung) of 1110 nM. For the same compound, the GI50 (UO-31 renal) was 287 nM, the TGI (UO-31 renal) was 638 nM and the GI50 (CCRF-CEM leukemia) was 930 nM. The TGI (CCRF-CEM leukemia) was > 16.7 µM, the GI50 (A498 renal) was 4.4 nM and the TGI (A498 renal) was > 16.7 µM. For the same compound, the GI50 (786-0 renal) was 360 nM, the TGI (786-0 renal) was 805 nM and the TGI (SK-MEL-2 melanoma) was > 4.94 µM. For the same compound, the GI50 (OVCAR-8 ovarian) was 526 nM, the TGI (OVCAR-8 ovarian) was > 16.7 µM and the GI50 (UACC-257 melanoma) was 480 nM. The TGI (UACC-257 melanoma) was 1110 nM, the GI50 (HCT-116 colon) was 378 nM and the TGI (HCT-116 colon) was 1000 nM. It also gave a GI50 (RXF 393 renal) of 296 nM, a TGI (RXF 393 renal) of 646 nM and a GI50 (NCI-H460 lung) of 417 nM. It also gave a TGI (NCI-H460 lung) of 1020 nM, a GI50 (HOP-62 NSCLC) of 292 nM and a TGI (HOP-62 NSCLC) of 660 nM. For the same compound, the GI50 (MDA-MB-231 breast) was 585 nM, the TGI (MDA-MB-231 breast) was > 16.7 µM and the GI50 (MDA-MB-435) was 1030 nM. The TGI (MDA-MB-435) was 4.74 µM, the GI50 (SR leukemia) was 944 nM and the TGI (SR leukemia) was > 16.7 µM. For the same compound, the GI50 (EKVX NSCLC) was 353 nM and the TGI (EKVX NSCLC) was 1530 nM.
